Laboratory results: PMC5471252, “Anti-leukemia activity of a Hsp70 inhibitor and its hybrid molecules” (Scientific Reports, 2017)
Entries after “also recorded” stand apart in the source; their conditions may differ.

How the values were obtained:
[1] = test system: Hsp70 level in HL-60 and K562 cells; experiment: Western blot of Hsp70 and Hsp90 levels; type: cell-based, human; settings: cells treated 24 h
Description: Because Az-O3-GD promotes caspase activation in leukemia cells, it was anticipated that procaspase-9, procaspase-3 and PARP would be cleaved in treated cells. To test this possibility, HL-60 and K562 cells were exposed to Az-O3-GD, along with Az and GD as controls and western blot analysis was then carried out. […] Although Az-O3-GD upregulates Hsp70, the presence of the Hsp70 inhibitor in this hybrid causes its cytotoxicity against leukemia cells to be higher than that of GD. Finally, we examined the effect of Az-O3-GD on AIF-mediated caspase-independent apoptosis. To this end, HL-60 and K562 cells were incubated with Az-O3-GD for 24 h.
Western blot analysis. […] peroxidase-conjugated goat anti-rabbit IgG (1:2000, Santa Cruz Bio Technology) and goat anti-mouse IgG (1:2000, Santa Cruz Bio Technology) were used as the secondary antibodies. The blots were developed by using a West-ZOL® plus Western Blot Detection System (Intron Biotechnology Inc., South Korea). Western blot signals were analyzed by using a G:BOX Chemi Fluorescent & Chemiluminescent Imaging System.

U937 cells = experiment: MTT assay, cell viability of U937 cells; type: cell-based; settings: Homo sapiens, U-937, 48 h, mean ± s.d., n = 3, read-out: IC50 values of compounds for leukemia cells
Jurkat cells = experiment: MTT assay, cell viability of Jurkat cells; type: cell-based; settings: Homo sapiens, 48 h, mean ± s.d., n = 3, read-out: IC50 values of compounds for leukemia cells
HL-60 and K562 cells [2] = experiment: Flow cytometry, JC-1 mitochondrial membrane potential; type: cell-based, human; settings: 24 h; 10 µM Az or 4 µM Az-O3-GD
Description: (§1) To determine whether Az promotes leukemia cell death via apoptosis, acute leukemia HL-60 and chronic leukemia K562 cells were independently incubated with Az. The treated cells were then exposed to a mixed solution of fluorescein-annexin V and propidium iodide (PI) and flow cytometry analysis was conducted. […] The size of the treated cells was also assessed by using flow cytometry. […] We also investigated if the mitochondrial membrane potential in cells treated with Az is disrupted. To test this possibility, HL-60 and K562 cells were exposed to Az and subsequently stained with a membrane potential sensitive JC-1 probe. […] This serves as another evidence for apoptosis induced by Az.
JC-1 staining: HL-60 and K562 cells were treated with each compound and then with 2.5 μg/mL JC-1 (Anaspec) in PBS for 15 min. Flow cytometry was conducted with a BD FACSVerse™ instrument (the red fluorescence signal: λex = 550 nm, λem = 600 nm; the green fluorescence signal: λex = 485 nm, λem = 535 nm) and the data were analyzed using a FlowJo™ software.

HL-60 and K562 cells [3] = experiment: Flow cytometry, fluorescein-annexin V and PI staining; type: cell-based, human; settings: 24 h; 10 µM Az, 10 µM GD or 4 µM Az-O3-GD
Description: as §1
HL-60 and K562 cells were incubated with each compound for 24 h in culture media. Cells were re-suspended with 500 μL binding buffer (10 mM HEPES, […] and 2.5 mM CaCl2, pH 7.5) and then incubated with the FITC-annexin V apoptosis detection kit with PI according to the protocol provided by the manufacturer. Flow cytometry was carried out by using a BD FACSVerse™ instrument (BD Biosciences) and the data were analyzed by using a FlowJo™ software (BD Biosciences).

K562 cells = experiment: MTT assay, cell viability of K562 cells; type: cell-based; settings: Homo sapiens, 48 h, mean ± s.d., n = 3, read-out: IC50 values of compounds for leukemia cells
[4] = test system: human leukemia cells (HL-60, KG-1, THP-1, U937, Jurkat and K562 cells); experiment: MTT assay, all tested leukemia cells (summary statements); settings: Homo sapiens, 48 h, read-out: IC50 values, cytotoxic activities toward all the tested leukemia
Description: To assess anti-leukemia activity of Az, several human leukemia cells (HL-60 cells, acute myeloid leukemia; Jurkat cells, acute T-lymphocytic leukemia; KG-1 cells, acute myeloid leukemia; U937 cells, acute myeloid leukemia; THP-1 cells, acute monocytic leukemia; K562 cells, chronic myeloid leukemia) were incubated with Az for 48 h. […] An MTT assay was then performed to measure cell viabilities.
(§2) Cells were exposed to each compound (a HCl salt form) at various concentrations for indicated time periods (24 or 48 h) in culture media. MTT assays were conducted according to known procedures. The absorbance at 570 nm was determined by employing a microplate reader (TECAN, Infinite® 200 PRO).

[5] = test system: Ba/F3 cells producing imatinib-resistant mutant Bcr-Abl (T315I); experiment: MTT assay, Ba/F3 cells producing mutant Bcr-Abl (T315I); type: cell-based, murine; settings: Mus musculus, BaF3, 24 h, read-out: IC50 values, cytotoxicity towards cells expressing mutant Abl
Description: Next, the cytotoxic effects of Az on wild-type and mutant Bcr-Abl expressing cells were evaluated.
as §2
Cells were treated with various concentrations of each compound for 24 h. Cell death was measured by using an MTT assay (mean ± s.d., n = 3).

THP-1 cells = experiment: MTT assay, cell viability of THP-1 cells; type: cell-based; settings: Homo sapiens, 48 h, mean ± s.d., n = 3, read-out: IC50 values of compounds for leukemia cells
[6] = target: T1, interaction of Hsp70 with Apaf-1 in HL-60 and K562 cells (Homo sapiens, UniProt P0DMV8); experiment: Immunoprecipitation of Hsp70/Apaf-1 complex with Hsp70 antibody; type: cell-based; settings: cells treated 24 h, co-immunoprecipitation
T1 construct: endogenous in cells; host or cells: HL-60 and K562 cells
T1 sequence (P0DMV8 whole entry): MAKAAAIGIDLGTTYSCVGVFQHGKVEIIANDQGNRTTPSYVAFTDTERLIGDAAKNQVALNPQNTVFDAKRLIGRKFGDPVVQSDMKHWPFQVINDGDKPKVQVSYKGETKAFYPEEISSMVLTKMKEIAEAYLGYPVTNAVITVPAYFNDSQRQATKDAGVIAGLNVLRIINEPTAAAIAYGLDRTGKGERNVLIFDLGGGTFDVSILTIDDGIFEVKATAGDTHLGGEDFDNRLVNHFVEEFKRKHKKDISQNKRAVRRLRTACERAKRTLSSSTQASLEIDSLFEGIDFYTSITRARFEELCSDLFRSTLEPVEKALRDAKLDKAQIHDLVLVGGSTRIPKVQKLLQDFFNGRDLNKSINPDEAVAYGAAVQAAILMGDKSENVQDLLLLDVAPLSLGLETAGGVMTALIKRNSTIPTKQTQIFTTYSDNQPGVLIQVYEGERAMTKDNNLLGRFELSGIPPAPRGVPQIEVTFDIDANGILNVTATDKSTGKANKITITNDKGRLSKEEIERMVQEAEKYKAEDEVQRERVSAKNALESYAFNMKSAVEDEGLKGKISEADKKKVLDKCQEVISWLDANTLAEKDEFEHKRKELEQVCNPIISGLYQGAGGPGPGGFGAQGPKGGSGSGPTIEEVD
Description: With this information in mind, we tested if Az enhances the cytochrome c release from mitochondria into the cytosol in leukemia cells. The levels of cytochrome c in cytosolic and mitochondrial fractions of HL-60 and K562 cells after treatment with Az were determined by using western blot analysis. […] We next determined if the binding of Hsp70 to Apaf-1 is suppressed by Az during apoptosis. For this purpose, HL-60 and K562 cells were exposed to Az, and a complex of Hsp70 and Apaf-1 was then immunoprecipitated with Hsp70 antibody.
Supplementary Figure S9. Az blocks association of Hsp70 with Apaf-1. (a) HL-60 and K562 cells were treated with Az for 24 h, and the amount of Hsp70, Hsc70 and Apaf-1 was measured by western blot. […] (b) HL-60 and K562 cells were treated with Az for 24 h. Immunoprecipitation was performed with a Hsp70 antibody, and the amount of co-precipitated Apaf-1 was determined by western blot.

KG-1 cells = experiment: MTT assay, cell viability of KG-1 cells; type: cell-based; settings: Homo sapiens, 48 h, mean ± s.d., n = 3, read-out: IC50 values of compounds for leukemia cells

COc1ccc(-c2nc(-c3cc(C(F)(F)F)cc(C(F)(F)F)c3)n(Cc3ccc(C(=O)NCCOCCOCCN)cc3)c2-c2ccc(OC)cc2)cc1 [Az, apoptozole]
translational level of Hsp70 [1]: does not affect the translational levels of Hsp70 and Hsp90
IC50 (U937 cells): 4.7 ± 0.77 µM
IC50 (Jurkat cells): 3.1 ± 0.61 µM
mitochondrial membrane potential, JC-1 red fluorescence (HL-60 and K562 cells [2]): reduction of the mitochondrial membrane potential
apoptosis, annexin V binding and PI uptake (HL-60 and K562 cells [3]): positive annexin V binding and positive PI uptake; also recorded: induces apoptosis
IC50 (K562 cells): 3.6 ± 0.52 µM
IC50 [4]: 2 to 5 µM
IC50 [5]: 2.2 µM
IC50 (THP-1 cells): 3.7 ± 0.73 µM
interaction of Hsp70 with Apaf-1 [6]: inhibits the interaction of Hsp70 with Apaf-1
IC50 (KG-1 cells): 3.3 ± 0.71 µM
